For ten molecules, AC50 results are on record in ChEMBL document CHEMBL5291721, “A preclinical secondary pharmacology resource illuminates target-adverse drug reaction associations of marketed drugs” (Nat Commun, 2023).

Among the targets are Adenosine receptor A2a (Homo sapiens, UniProt P29274); Vasopressin V2 receptor (Homo sapiens, UniProt P30518); Melanocortin receptor 4 (Homo sapiens, UniProt P32245); Motilin receptor (Homo sapiens, UniProt O43193).
Data set [1] deals with Beta-1 adrenergic receptor (Homo sapiens, UniProt P08588). The format is functional.
Beta-1 adrenergic receptor, sequence (P08588 whole entry): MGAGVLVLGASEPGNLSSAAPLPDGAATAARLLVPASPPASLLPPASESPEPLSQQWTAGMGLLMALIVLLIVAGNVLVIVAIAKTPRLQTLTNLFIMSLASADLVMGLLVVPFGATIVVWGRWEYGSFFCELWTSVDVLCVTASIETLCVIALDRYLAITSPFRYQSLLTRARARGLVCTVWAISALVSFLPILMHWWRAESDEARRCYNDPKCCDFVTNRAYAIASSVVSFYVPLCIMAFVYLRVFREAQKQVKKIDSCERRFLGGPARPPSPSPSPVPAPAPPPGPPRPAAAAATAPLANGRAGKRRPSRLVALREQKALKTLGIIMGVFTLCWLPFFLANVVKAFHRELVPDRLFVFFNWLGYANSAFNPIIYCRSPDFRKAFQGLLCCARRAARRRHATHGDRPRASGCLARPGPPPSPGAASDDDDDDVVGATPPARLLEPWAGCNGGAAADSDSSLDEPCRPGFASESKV
Data set [2] addresses Gamma-aminobutyric acid receptor subunit alpha-1 (Rattus norvegicus, UniProt P62813).
In data set [3] the target is Glutamate receptor ionotropic, NMDA 1 (Rattus norvegicus, UniProt P35439).
Data set [4] concerns the target Voltage-gated inwardly rectifying potassium channel KCNH2 (Homo sapiens, UniProt Q12809). Format: functional.
For data set [5], the target named is T1, Neuropeptide Y receptor type 1 (Homo sapiens, UniProt P25929).
T1 sequence (P25929 whole entry): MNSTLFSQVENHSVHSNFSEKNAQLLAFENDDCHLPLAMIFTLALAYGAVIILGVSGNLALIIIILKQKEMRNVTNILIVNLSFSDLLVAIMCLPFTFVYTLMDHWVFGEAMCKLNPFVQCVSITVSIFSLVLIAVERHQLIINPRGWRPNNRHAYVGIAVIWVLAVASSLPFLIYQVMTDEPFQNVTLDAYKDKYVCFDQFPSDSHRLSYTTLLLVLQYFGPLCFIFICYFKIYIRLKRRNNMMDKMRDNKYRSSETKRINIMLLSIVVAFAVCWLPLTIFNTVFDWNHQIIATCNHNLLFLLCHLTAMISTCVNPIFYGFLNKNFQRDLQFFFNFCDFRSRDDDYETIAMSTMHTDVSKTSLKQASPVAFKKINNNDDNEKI

For data set [6], the target named is Kappa-type opioid receptor (Homo sapiens, UniProt P41145).
Kappa-type opioid receptor, sequence (P41145 whole entry): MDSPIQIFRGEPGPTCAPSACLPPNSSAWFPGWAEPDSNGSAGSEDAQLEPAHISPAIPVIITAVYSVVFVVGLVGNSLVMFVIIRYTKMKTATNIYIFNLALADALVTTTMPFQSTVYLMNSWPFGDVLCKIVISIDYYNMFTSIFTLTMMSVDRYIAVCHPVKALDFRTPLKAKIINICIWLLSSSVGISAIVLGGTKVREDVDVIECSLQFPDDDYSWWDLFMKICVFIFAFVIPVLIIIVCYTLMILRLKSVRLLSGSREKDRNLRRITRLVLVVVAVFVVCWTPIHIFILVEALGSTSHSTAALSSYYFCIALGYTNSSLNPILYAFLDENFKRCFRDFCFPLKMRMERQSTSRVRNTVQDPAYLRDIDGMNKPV
In data set [7] the target is T2, Equilibrative nucleoside transporter 1 (Homo sapiens, UniProt Q99808).
T2 sequence (Q99808 whole entry): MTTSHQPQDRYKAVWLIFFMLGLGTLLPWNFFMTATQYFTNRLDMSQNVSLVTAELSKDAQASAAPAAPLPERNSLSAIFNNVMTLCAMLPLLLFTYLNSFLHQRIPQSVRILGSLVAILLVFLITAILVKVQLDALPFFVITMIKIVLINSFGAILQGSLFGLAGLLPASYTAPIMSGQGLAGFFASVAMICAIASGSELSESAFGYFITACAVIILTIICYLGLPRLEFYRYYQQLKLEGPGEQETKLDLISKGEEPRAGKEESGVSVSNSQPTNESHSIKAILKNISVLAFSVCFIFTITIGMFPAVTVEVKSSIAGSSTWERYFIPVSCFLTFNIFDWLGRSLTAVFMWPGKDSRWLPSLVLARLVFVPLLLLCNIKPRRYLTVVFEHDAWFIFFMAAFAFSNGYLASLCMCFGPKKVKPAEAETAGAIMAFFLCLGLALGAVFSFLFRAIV

Data set [8] deals with T3, Alpha-2A adrenergic receptor (Homo sapiens, UniProt P08913).
T3 sequence (P08913 whole entry): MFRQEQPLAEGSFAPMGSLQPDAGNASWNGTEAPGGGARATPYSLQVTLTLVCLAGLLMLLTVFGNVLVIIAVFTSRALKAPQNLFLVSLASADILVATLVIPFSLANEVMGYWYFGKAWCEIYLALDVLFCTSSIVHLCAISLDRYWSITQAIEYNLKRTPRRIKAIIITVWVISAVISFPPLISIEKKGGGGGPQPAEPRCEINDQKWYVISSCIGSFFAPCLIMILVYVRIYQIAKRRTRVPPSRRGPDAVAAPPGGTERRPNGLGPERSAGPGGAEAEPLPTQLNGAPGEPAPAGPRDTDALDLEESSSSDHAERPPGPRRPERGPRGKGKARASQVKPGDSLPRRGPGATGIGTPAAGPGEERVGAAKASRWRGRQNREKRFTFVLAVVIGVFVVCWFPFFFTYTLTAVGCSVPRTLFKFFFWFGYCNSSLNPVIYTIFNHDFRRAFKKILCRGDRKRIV
Format: functional, cell-based.

The target in data set [9] is T4, 5-hydroxytryptamine receptor 1A (Homo sapiens, UniProt P08908).
T4 sequence (P08908 whole entry): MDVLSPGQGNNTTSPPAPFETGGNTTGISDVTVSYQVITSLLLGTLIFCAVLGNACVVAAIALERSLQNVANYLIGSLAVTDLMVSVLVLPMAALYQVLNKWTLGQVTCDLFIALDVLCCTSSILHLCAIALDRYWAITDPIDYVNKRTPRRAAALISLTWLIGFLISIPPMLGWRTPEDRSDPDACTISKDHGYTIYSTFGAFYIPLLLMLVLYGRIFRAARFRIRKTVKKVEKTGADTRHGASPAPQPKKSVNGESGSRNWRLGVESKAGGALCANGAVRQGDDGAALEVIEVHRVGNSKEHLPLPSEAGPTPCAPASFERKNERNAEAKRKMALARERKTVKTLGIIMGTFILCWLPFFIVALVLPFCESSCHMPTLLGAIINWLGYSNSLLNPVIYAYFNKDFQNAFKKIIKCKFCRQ
Format: functional, cell-based.

The target of data set [10] is T5, Alpha-1A adrenergic receptor (Homo sapiens, UniProt P35348).
T5 sequence (P35348 whole entry): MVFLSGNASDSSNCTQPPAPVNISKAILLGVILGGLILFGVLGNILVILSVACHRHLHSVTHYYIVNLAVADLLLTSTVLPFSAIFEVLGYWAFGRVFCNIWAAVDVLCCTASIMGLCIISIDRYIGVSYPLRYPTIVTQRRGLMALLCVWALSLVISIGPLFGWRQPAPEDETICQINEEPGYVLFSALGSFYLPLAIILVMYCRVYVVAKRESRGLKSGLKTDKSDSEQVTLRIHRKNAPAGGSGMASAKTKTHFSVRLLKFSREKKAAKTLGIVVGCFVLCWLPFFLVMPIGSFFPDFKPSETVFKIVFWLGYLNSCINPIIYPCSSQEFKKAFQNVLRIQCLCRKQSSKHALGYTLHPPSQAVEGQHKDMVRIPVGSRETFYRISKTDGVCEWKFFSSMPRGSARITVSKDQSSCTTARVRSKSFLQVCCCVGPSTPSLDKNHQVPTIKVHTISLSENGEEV
The format is functional, cell-based.

For data set [11], the target named is T6, Cannabinoid receptor 1 (Homo sapiens, UniProt P21554). The format is functional, cell-based.
T6 sequence (P21554 whole entry): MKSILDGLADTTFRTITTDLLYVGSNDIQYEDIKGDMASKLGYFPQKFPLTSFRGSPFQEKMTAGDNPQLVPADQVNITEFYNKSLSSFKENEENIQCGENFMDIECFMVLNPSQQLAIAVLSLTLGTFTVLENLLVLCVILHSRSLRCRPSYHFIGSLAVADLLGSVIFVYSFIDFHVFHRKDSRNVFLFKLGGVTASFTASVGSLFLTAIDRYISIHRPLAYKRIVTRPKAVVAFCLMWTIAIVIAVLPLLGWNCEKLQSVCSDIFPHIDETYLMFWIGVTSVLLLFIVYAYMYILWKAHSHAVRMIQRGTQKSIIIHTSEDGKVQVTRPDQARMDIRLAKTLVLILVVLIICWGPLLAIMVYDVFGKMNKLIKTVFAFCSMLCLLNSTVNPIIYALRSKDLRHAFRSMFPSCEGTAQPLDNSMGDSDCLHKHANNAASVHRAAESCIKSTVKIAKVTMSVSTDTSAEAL
Data set [12] addresses T6, Cannabinoid receptor 1. The format is functional, cell-based. This is another data set of the same source.
Data set [13] deals with T5, Alpha-1A adrenergic receptor.
Also: assay procedure not described here.

Motilin receptor, sequence (O43193 whole entry): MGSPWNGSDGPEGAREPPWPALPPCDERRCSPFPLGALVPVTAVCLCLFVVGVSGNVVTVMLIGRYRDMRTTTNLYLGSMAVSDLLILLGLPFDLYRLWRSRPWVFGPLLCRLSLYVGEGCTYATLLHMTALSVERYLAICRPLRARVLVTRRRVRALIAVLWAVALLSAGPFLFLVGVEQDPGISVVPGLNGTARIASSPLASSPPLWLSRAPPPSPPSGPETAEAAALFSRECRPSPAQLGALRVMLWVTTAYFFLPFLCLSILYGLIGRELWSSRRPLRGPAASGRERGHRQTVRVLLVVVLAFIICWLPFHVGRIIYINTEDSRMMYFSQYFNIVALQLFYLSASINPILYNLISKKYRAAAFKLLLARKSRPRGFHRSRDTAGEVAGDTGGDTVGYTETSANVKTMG
Melanocortin receptor 4, sequence (P32245 whole entry): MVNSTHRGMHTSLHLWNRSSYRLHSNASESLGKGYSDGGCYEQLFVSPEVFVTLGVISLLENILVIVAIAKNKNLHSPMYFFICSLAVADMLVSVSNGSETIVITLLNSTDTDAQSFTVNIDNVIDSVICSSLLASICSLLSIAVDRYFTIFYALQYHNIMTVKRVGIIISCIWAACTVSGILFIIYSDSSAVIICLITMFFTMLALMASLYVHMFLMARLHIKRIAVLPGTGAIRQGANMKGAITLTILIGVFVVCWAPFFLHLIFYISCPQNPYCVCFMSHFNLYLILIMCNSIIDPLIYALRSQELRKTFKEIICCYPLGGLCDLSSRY
Gamma-aminobutyric acid receptor subunit alpha-1, sequence (P62813 whole entry): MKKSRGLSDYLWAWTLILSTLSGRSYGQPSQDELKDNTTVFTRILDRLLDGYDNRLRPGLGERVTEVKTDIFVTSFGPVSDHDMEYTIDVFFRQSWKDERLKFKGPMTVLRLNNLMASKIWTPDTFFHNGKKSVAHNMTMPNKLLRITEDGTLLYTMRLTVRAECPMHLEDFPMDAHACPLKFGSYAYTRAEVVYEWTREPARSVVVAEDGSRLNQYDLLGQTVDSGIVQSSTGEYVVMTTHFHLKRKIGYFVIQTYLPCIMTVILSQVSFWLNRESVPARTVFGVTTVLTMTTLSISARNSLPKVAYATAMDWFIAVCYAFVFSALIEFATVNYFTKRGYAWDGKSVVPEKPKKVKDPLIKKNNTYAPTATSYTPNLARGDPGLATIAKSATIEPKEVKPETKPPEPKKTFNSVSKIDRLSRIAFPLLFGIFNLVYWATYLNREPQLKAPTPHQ
Adenosine receptor A2a, sequence (P29274 whole entry): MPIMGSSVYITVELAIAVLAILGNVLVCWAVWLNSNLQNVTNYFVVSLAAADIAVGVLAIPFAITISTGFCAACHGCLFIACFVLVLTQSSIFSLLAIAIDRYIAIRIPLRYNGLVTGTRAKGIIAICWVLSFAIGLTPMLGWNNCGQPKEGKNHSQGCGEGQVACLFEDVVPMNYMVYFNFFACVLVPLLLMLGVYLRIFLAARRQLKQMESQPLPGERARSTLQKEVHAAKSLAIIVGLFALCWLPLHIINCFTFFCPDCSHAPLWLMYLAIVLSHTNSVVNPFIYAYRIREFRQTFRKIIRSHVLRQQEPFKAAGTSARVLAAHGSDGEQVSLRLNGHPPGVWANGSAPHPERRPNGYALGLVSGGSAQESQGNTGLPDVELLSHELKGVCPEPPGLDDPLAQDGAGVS
Voltage-gated inwardly rectifying potassium channel KCNH2, sequence (Q12809 whole entry): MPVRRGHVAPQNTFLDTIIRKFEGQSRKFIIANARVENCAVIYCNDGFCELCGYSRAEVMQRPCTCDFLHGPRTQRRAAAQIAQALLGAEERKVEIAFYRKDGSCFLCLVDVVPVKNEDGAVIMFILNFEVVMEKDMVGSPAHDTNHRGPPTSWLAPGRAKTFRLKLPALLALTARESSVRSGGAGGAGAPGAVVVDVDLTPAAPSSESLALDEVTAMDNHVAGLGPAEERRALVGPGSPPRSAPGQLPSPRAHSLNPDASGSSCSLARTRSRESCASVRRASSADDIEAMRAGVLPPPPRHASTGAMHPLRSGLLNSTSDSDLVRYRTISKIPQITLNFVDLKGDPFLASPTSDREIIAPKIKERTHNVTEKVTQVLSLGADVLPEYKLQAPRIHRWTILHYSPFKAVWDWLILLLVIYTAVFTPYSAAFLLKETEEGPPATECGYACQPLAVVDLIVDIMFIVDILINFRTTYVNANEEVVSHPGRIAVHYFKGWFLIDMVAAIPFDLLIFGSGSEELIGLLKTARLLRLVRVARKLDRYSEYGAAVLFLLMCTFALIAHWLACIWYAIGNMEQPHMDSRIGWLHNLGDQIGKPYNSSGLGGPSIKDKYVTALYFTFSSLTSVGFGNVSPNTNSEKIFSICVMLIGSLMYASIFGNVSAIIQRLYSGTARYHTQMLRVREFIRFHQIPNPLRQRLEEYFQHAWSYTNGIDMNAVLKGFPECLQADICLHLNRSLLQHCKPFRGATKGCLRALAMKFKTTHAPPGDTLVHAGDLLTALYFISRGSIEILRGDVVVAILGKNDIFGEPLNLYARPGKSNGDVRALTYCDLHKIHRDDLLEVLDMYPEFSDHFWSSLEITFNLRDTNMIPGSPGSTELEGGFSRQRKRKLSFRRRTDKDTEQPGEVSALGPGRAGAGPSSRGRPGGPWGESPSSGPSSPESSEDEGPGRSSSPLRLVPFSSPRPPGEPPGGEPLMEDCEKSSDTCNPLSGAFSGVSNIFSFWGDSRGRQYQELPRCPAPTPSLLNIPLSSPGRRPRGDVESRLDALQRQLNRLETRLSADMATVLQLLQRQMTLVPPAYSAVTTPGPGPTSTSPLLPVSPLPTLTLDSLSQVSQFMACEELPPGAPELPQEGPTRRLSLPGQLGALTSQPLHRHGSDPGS

The term AC50 denotes the concentration at which the activity in the assay is half-maximal. For `O=C(O[C@H]1C[N+]2(CCCOc3ccccc3)CCC1CC2)C(O)(c1cccs1)c1cccs1` [ACLIDINIUM BROMIDE], the concentration at half-maximal activity (AC50) on Adenosine receptor A2a was more than 30 µM; in data set [1] it was more than 10 µM; at Vasopressin V2 receptor, more than 30 µM; in data set [2], more than 10 µM; in [3], more than 10 µM; in [4] (read-out: AC50) it was 0.43 µM. For the same molecule, the AC50 is more than 30 µM on Melanocortin receptor 4; more than 10 µM at Motilin receptor; more than 30 µM in [5]; 13.9 µM in data set [6]; more than 30 µM in data set [7].
With `O=C(O)CCCC[C@@H]1SC[C@@H]2NC(=O)N[C@@H]21` [BIOTIN], the AC50 is more than 10 µM at Adenosine receptor A2a; more than 10 µM in [8]; more than 10 µM at Vasopressin V2 receptor; more than 10 µM in data set [9]; more than 30 µM in [4] (read-out: AC50); more than 10 µM on Melanocortin receptor 4. The AC50 (on Motilin receptor; in data set [5]; in data set [6]; in [7]) was more than 10 µM each time.
Regarding `CC(NC(C)(C)C)C(=O)c1cccc(Cl)c1` (stereo unspecified) [BUPROPION], the half-maximal activity concentration (AC50) at Adenosine receptor A2a is more than 30 µM; in data set [10] it was more than 30 µM; in data set [8] it was more than 10 µM; in data set [1], more than 10 µM; at Vasopressin V2 receptor, more than 30 µM; at Cannabinoid receptor 1 [11], more than 30 µM. In addition, the concentration at half-maximal activity (AC50) on Cannabinoid receptor 1 [12] is more than 30 µM; in [3] it was more than 10 µM; in [9] it was more than 10 µM; on Melanocortin receptor 4, more than 30 µM; at Motilin receptor it was more than 10 µM; in data set [5], more than 30 µM. For the same molecule, the AC50 in [7] is more than 30 µM.
On to `CCc1ccc(C(=O)C(C)CN2CCCCC2)cc1` (stereo unspecified) [EPERISONE], for which the AC50 (on Adenosine receptor A2a; in data set [10]; in [13]; in data set [8]; in [1]; on Vasopressin V2 receptor) was more than 30 µM each time. Also, the AC50 was more than 30 µM in data set [2]; more than 30 µM in data set [3]; more than 30 µM in data set [9]; 1.57 µM in data set [4] (read-out: AC50); more than 30 µM at Motilin receptor; more than 30 µM in data set [5]. Also, the AC50 in [6] and in data set [7] was more than 30 µM in each case.
On to `CCC(NC(C)C)C(O)c1ccc(O)c(O)c1` (stereo unspecified) [ISOETHARINE], for which the half-maximal activity concentration (AC50) (on Adenosine receptor A2a; in data set [13]; in data set [8]; at Vasopressin V2 receptor; in data set [2]; in [3]) was more than 30 µM throughout. Further, the AC50 was more than 30 µM in data set [9]; more than 30 µM in data set [4] (read-out: AC50); more than 30 µM at Motilin receptor; more than 30 µM in data set [5]; 8.95 µM in [6]; more than 30 µM in data set [7].
Turning to `CCN(CC)CC(=O)Nc1c(C)cccc1C` [LIDOCAINE], the AC50 at Adenosine receptor A2a was more than 30 µM; on Vasopressin V2 receptor, more than 30 µM; at Melanocortin receptor 4, 22.7 µM; on Motilin receptor, more than 10 µM; in data set [5] it was more than 30 µM; in data set [7] it was more than 30 µM.
For the molecule `CCCCC[C@H](O)CC[C@@H]1[C@H]2Cc3cccc(OCC(=O)O)c3C[C@H]2C[C@H]1O` [TREPROSTINIL], the AC50 (at Adenosine receptor A2a; in data set [10]; in data set [8]; in data set [1]; on Vasopressin V2 receptor; on Cannabinoid receptor 1 [11]) was more than 30 µM throughout. Further, the AC50 (on Cannabinoid receptor 1 [12]; in data set [2]; in [3]; in data set [9]; in data set [4] (read-out: AC50); on Motilin receptor) was more than 30 µM each time. Besides, the AC50 in [5], in [6] and in data set [7] was more than 30 µM throughout.
Consider `CC1=C(/C=C/C(C)=C/C=C/C(C)=C/C(=O)Oc2c(C)c(C)c3c(c2C)CCC(C)(CCCC(C)CCCC(C)CCCC(C)C)O3)C(C)(C)CCC1` (stereo unspecified) [TRETINOIN TOCOFERIL], for which the AC50 (on Adenosine receptor A2a; in data set [10]; in data set [8]; in [1]; at Vasopressin V2 receptor; on Cannabinoid receptor 1 [11]) was more than 30 µM throughout. Further, the AC50 (at Cannabinoid receptor 1 [12]; in [2]; in [3]; in data set [9]; in data set [4] (read-out: AC50); on Motilin receptor) was more than 30 µM each time. The AC50 in [5], in data set [6] and in [7] was more than 30 µM throughout.
Turning to `CCCCCCCC(=O)CC[C@@H]1[C@@H](C/C=C\CCCC(=O)O)[C@@H](O)C[C@H]1O` [UNOPROSTONE], the AC50 (on Adenosine receptor A2a; in [10]; in data set [8]; in data set [1]; at Vasopressin V2 receptor; on Cannabinoid receptor 1 [11]) was more than 30 µM throughout. The AC50 (at Cannabinoid receptor 1 [12]; in data set [2]; in data set [3]; in [9]; in data set [4] (read-out: AC50); on Motilin receptor) was more than 30 µM throughout. The concentration at half-maximal activity (AC50) in data set [5], in [6] and in [7] was more than 30 µM throughout.
For SITOSTEROLS, the AC50 (at Adenosine receptor A2a; in [10]; in [8]; in [1]; on Vasopressin V2 receptor; on Cannabinoid receptor 1 [11]) was more than 30 µM throughout. Besides, the concentration at half-maximal activity (AC50) is more than 30 µM at Cannabinoid receptor 1 [12]; more than 30 µM in data set [2]; more than 30 µM in [3]; more than 30 µM in data set [9]; more than 30 µM in data set [4] (human, cellular components); more than 30 µM at Motilin receptor. Besides, the half-maximal activity concentration (AC50) in data set [5], in data set [6] and in [7] was more than 30 µM in each case.
